Data set [1] relates to AChE. Particulars: cited from earlier work.
Data set [2] addresses T1, BChE (Homo sapiens, UniProt P06276). The following applies: previous study; cited from earlier work.
Data set [3] relates to eAChE. Particulars: read-out: IC50 against eAChE, cited from earlier work.
The conditions of data set [4]: pH 7.3 (physiological pH); cited from earlier work.
The test system of data set [5] is rat cerebral cortex AChE. The following applies: read-out: IC50, rat cerebral cortex AChE; cited from earlier work.
In data set [6] the test system is AChE. As to the kind of experiment: AChE inhibition by IPA. The class given is biochemical. The following applies: data not shown.
The target of data set [7] is T1, BChE. As to the kind of experiment: BChE inhibition by IPA. The data set is classed as biochemical. Particulars: data not shown.
The nature of data set [8]: FRAP activity. The following applies: CUR-IPA 50 to 250 μM; ascorbic acid 2 to 10 μM.
Data set [9] in a line: DPPH radical scavenging activity. The following applies: read-out: IC50, DPPH radical scavenging.
Data set [10] in a line: ABTS radical scavenging activity. The following applies: read-out: IC50, ABTS radical scavenging.

In brackets after ≈: the same amount, converted by molar mass. Read-outs that look alike come from different tables or passages of the source.

Data on three molecules can be found in PMC11904713 (ACS Omega, 2025).

T1 sequence (P06276 29-602): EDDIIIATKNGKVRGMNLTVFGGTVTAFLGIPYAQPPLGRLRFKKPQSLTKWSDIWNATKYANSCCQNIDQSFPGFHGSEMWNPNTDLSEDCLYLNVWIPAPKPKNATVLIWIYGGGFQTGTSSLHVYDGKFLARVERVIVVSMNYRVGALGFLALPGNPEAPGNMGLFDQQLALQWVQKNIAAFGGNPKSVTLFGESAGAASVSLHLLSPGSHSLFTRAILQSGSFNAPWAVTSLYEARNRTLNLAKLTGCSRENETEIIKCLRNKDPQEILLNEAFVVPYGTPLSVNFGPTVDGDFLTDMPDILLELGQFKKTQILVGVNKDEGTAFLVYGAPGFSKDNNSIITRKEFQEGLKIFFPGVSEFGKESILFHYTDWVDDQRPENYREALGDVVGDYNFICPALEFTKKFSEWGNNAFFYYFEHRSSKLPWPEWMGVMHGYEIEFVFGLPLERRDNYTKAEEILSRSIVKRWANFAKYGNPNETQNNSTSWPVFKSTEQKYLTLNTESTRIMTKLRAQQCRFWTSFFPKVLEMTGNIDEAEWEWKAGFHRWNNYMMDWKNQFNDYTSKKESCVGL

For the molecule `COc1cc(C=CC(=O)CC(=O)C=Cc2ccc(O)c(OC)c2)ccc1O` [CUR, 1,7-bis(4-hydroxy-3-methoxyphenyl)-1,6-heptadiene-3,5-dione], in [1], the “effect on AChE activity in the ex vivo model” value is “did not affect AChE activity”. Moreover, in [2], the “inhibition against BChE” value is given as “did not show inhibition”. In addition, the figures for the IC50 in data set [3] (another study), in [3] (previous study) and in data set [5] were 67.7 µM, 51.8 µM and 10 µM, respectively. The solubility in [4] is 0.4 µg/mL (≈ 1.09 µM).
Regarding `O=C(O)CCc1c[nH]c2ccccc12` [IPA, Indole-3-propionic acid], in data set [6], the “concentration showing inhibition against AChE” value was no less than 500 µM. The “concentration showing inhibition against BChE” value in data set [7] was no less than 500 µM.
As for `O=C1O[C@H]([C@@H](O)CO)C(O)=C1O` [ascorbic acid], the FRAP activity entry in [8] is reported as “present linearly”. The values for the IC50 in data set [9] and in data set [10] were 34.5 µM and 15.8 µM, respectively.
